Several values for one entry are separate records, joined by “and”; a condition that tells them apart may be missing. Equal values may be shown once. Read-outs that look alike come from different tables or passages of the source.

This note sets out measurements from patent US20260200849A1, “CATIONIC LIPIDS AND PREPARATION METHOD THEREOF” (RiboX Therapeutics HK Limited, priority 2024, published 2026).

For data set [1], the system named is Hep G2 cells. Nature of the data set: In vitro toxicity: Hep G2 cell viability by CellTiter-Glo. Format: cell-based. Conditions: Formulation No. 001, RNA No. 331, 1 μg/mL RNA-LNPs, 72 hours post transfection, cell only = 100%. On the procedure:
2E5 Hep G2 cells were transfected with 1 μg/mL RNA-LNPs. At 72 hours post transfection, cell viability (2-well repeat) was determined with the CellTiter-Glo® reagent kit, according to the kit protocol, measured by a luminometer. Cell only as control (100%).
The cell viability was calculated according to the following formula: […]
For orientation: In ATP-based viability assays light output follows the ATP content of the culture.

A short description of data set [2]: LNP size and polydispersity index (PDI) by dynamic light scattering (Zetasizer). Conditions: for Size (nm): Formulation No. 001 (Ionizable lipid:DSPC:cholesterol:DMG-PEG2000 = 50:10:38.5:1.5, N/P 6), RNA No. 331. Format: physicochemical. On the procedure:
(§1) The LNP size and polydispersity index (PDI), determined by dynamic light scattering (DLS), and zeta potential were measured by a Zetasizer machine (Malvern). RNA concentration and encapsulation efficacy (EE %) were analyzed by the Quant-IT Ribogreen kit by calculating the percentage encapsulation at 100%—(RNA-LNPs/RNA-LNPs with Triton X-100).

Another data set concerns Balb/c mice. Nature of the data set: In vivo expression by IV, 0.05 mg/kg luciferase RNA-LNPs, IVIS luminescence. The method, then: 7-8 week old, female Balb/c mice (N=3) were injected with 0.05 mg*kg−1 of RNA-LNPs encoding for firefly-luciferase by intravenous injection. At 24- and 72-hours post injection, animals were intraperitoneally injected with 15 mg/mi of Luciferin substrate and whole-body luminescence was determined by a bioluminescent in vivo imaging system (IVIS).
7-8 week old, female Balb/c mice (N=3) were injected with 0.05 mg*kg−1 of RNA-LNPs encoding for firefly-luciferase by intravenous injection. At 24-hours post injection, animals were intraperitoneally injected with 15 mg/ml of Luciferin substrate and whole-body/liver/spleen luminescence was determined by a bioluminescent in vivo imaging system (IVIS).

A short description of data set [3]: RNA encapsulation efficacy (EE %) by Quant-IT Ribogreen kit. Format: physicochemical. The conditions noted are these: LNP. On the procedure:
as §1

Data set [4] concerns Hep G2 cells. Nature of the data set: In vitro expression: luciferase activity in Hep G2 cells transfected with RNA-LNPs. Format: cell-based. Conditions: Formulation No. 001, RNA No. 331 (firefly-luciferase), 100 ng/mL RNA-LNPs, 72 hours post transfection. On the procedure: 2E5 Hep G2 cells were transfected with 100 ng/mL of RNA-LNPs encoding for firefly-luciferase. At 72 hours post transfection, the cells were washed and lysed. The luciferase expression (2-well repeat) was determined in the cell lysates with the luciferase assay reagent kit (Promega), according to the kit protocol, luciferase activity was measured by a luminometer.

Another data set relates to C57BL/6J mice. Nature of the data set: In vivo expression by IV, 1.0 mg/kg luciferase RNA-LNPs, whole-body and organ IVIS luminescence. Conditions: IV 1.0 mg/kg, 24 h post injection, male C57BL/6J mice N=3, Formulation 001, RNA 331. The method, then:
6-8 week old, male C57BL/6J mice (N=3) were injected with 1.0 mg*kg−1 of RNA-LNPs encoding for firefly-luciferase by intravenous injection. At 24-hours post injection, animals were intraperitoneally injected with 15 mg/ml of Luciferin substrate and whole-body/liver/spleen/kidney/small intestine/large intestine luminescence were determined by a bioluminescent in vivo imaging system (IVIS).
6-8 week old, male C57BL/6J mice (N=3) were injected with 1.0 mg*kg−1 of RNA-LNPs encoding for firefly-luciferase by intravenous injection. At 24-hours post injection, animals were intraperitoneally injected with 15 mg/nil of Luciferin substrate and whole-body/liver/spleen/kidney/small intestine/large intestine luminescence were determined by a bioluminescent in vivo imaging system (IVIS).

A further data set deals with MCP-1. Nature of the data set: In vivo tolerability by IV: serum MCP-1 by Luminex. Also noted: species or system C57BL/6J mice. The conditions noted are these: IV 1.0 mg/kg, male C57BL/6J mice N=3, Formulation 001, RNA 331. On the procedure: (§2) 6-8 week old, male C57BL/6J mice (N=3) were injected with 1.0 mg*kg/1 of RNA-LNPs encoding for firefly-luciferase by intravenous injection. At 2- and 24-hours post injection, about 40 μL blood was harvested and immediately added to the procoagulant containing tube. Stand for 30 min at room temperature and then centrifuged at 2500 g×10 min to obtain serum. About 15 μL serum samples were aliquoted for cytokine (MCP-1 and IL-6) detection by Luminex (ProcartaPlex Mouse 2-plex, Thermo). PBS group as negative control.
(§3) 6-8 week old, male C57BL/6J mice (N=3) were injected with 1.0 mg*kg−1 of RNA-LNPs encoding for firefly-luciferase by intravenous injection. At 2- and 24-hours post injection, about 40 μL blood was harvested and immediately added to the procoagulant containing tube. Stand for 30 min at room temperature and then centrifuged at 2500 g×10 min to obtain serum. About 15 μL serum samples were aliquoted for cytokine (MCP-1 and IL-6) detection by Luminex (ProcartaPlex Mouse 2-plex, Thermo). PBS group as negative control.

The nature of data set [5]: In vivo lipid metabolism by IV: ionizable lipid concentration in plasma and liver by LC-MS/MS. On the set-up: species or system Sprague-Dawley (SD) rats. Conditions: IV 0.15 mg/kg RNA-LNPs (hEPO), male SD rats, individual animals N=3. The method, then: In Vivo Lipid Metabolism by IV 7-8 week old, male Sprague-Dawley (SD) rats (N=3) were injected with 0.15 mg*kg−1 of RNA-LNPs encoding for hEPO by intravenous injection. At 1-/6-/96-/168-hours post injection, about 100 μL blood will be harvested and immediately added to the EDTAK2 containing tube. Place on wet ice and then centrifuged at 3000 g×5 min to obtain plasma. 30 μL plasma will be aliquoted to the 1.5 mL tubes. At terminal 6-/168-hours post injection, the rats will be euthanized with CO2, hemorrhaged immediately with cardiac puncture, respectively. The livers were harvested, weighed and washed with saline, then put into 50 ml centrifuge tube placed in liquid nitrogen, then transferred into wet ice, and finally stored at −80° C. immediately. Both plasma and liver samples were used for ionizable lipid concentration quantification by LC-MS/MS. The lower limit of quantitation (LLOQ) is 1 ng/mL in plasma or 11 ng/g in liver. BQL—Below the lower limit of quantitation (LLOQ).

In another data set the test system is IL-6. Nature of the data set: In vivo tolerability by IV: serum IL-6 by Luminex. Also noted: species or system C57BL/6J mice. The conditions noted are these: IV 1.0 mg/kg, male C57BL/6J mice N=3, Formulation 001, RNA 331. On the procedure:
as §2, §3

Where [6] appears, read: Formulation No. 001, RNA No. 331.
Where [7] appears, read: Formulation No. 001, RNA No. 331, female Balb/c mice, 0.05 mg*kg−1 intravenous, 24-hours post injection.
Where [8] appears, read: Formulation No. 001, RNA No. 019 (hEPO).
The mark [9] stands for this setting: IV 0.05 mg/kg, 24 h post injection, female Balb/c mice N=3, Formulation 001, RNA 331.

For the compound `CCCCCCCCC(CCCCCCCC)OC(=O)CCCCCCCOC(=O)C(COC(=O)NCCN1CCCCCC1)NC(=O)OCCCCCCCCOC(=O)C(CCCCCC)CCCCCCCC` (stereo not drawn) [Lipid 897], in the data set with Hep G2 cells [1], the “In vitro cell viability (%) (Mean)” value was 88.39%. The “Size (nm)” value in data set [2] amounted to 60.19 nm. Moreover, the PDI in data set [2] (setting [6]) was 0.04. In addition, in the data set with Balb/c mice (setting [7]), the “Liver (p/s) (Mean)” value is recorded as 1.67E+08 p/s, the “Spleen (p/s) (Mean)” value stood at 7.67E+07 p/s and the “Whole body (p/s) (Mean)” value amounted to 8.36E+08 p/s. For the same compound, in [3] (setting [6]), the “EE (%)” value is on record as 95.30%. Moreover, the “In vitro Expression (Mean)” value with Hep G2 cells [4] amounted to 1.77E+05.

Take `CCCCC/C=C\C/C=C\CCCCCCCCOC(=O)NC(COC(=O)NCCN1CCCC1)C(=O)OCCCCCC(=O)OCC(CCCCCCCC)CCCCCCCCCC` (stereo not drawn) [Lipid 909]: the “In vitro cell viability (%) (Mean)” value in the data set on Hep G2 cells [1] came to 94.80%. The “Size (nm)” value in [2] is listed as 74.26 nm. The PDI in data set [2] (setting [6]) is listed as 0.02. In the data set on Balb/c mice (setting [7]), the “Liver (p/s) (Mean)” value amounted to 7.57E+07 p/s, the “Spleen (p/s) (Mean)” value worked out at 2.35E+07 p/s and the “Whole body (p/s) (Mean)” value was 7.25E+08 p/s. In addition, the “EE (%)” value in data set [3] (setting [6]) amounted to 98.41%. Further, the “In vitro Expression (Mean)” value in the data set on Hep G2 cells [4] is 7.29E+04.

As for `CCCCCCCCCCCOC(=O)NC(COC(=O)NCCN(C)C)C(=O)OCCCCCCCC(=O)OC(CCCCCCCC)CCCCCCCC` (stereo not drawn) [Lipid 912], in the data set on Hep G2 cells [1], the “In vitro cell viability (%) (Mean)” value is on record as 92.96%. In data set [2], the “Size (nm)” value stood at 74.18 nm. Moreover, the PDI in data set [2] (setting [6]) amounted to 0.03. In the data set with Balb/c mice (setting [7]), the “Liver (p/s) (Mean)” value turned out to be 1.67E+07 p/s, the “Spleen (p/s) (Mean)” value is 7.97E+06 p/s and the “Whole body (p/s) (Mean)” value came out at 8.26E+07 p/s. Besides, in data set [3] (setting [6]), the “EE (%)” value is recorded as 97.83%. In addition, the “In vitro Expression (Mean)” value in the data set on Hep G2 cells [4] is recorded as 4.57E+04.

Take `CCCCCCCCCC(=O)OCCCCCCCOC(=O)C(COC(=O)NCCN(C)C)NC(=O)OCCCCCCCCOC(=O)C(CCCCCC)CCCCCCCC` (stereo not drawn) [Lipid 930]: the “In vitro cell viability (%) (Mean)” value with Hep G2 cells [1] is 92.08%. The “Size (nm)” value in data set [2] was determined as 92.24 nm. This compound returned a PDI in data set [2] (setting [6]) of 0.04. Also, in the data set with Balb/c mice (setting [7]), the “Liver (p/s) (Mean)” value is 3.49E+07 p/s, the “Spleen (p/s) (Mean)” value is on record as 6.28E+06 p/s and the “Whole body (p/s) (Mean)” value is given as 1.31E+08 p/s. Also, the “EE (%)” value in [3] (setting [6]) is given as 97.46%. The “In vitro Expression (Mean)” value in the data set with Hep G2 cells [4] is 8.27E+03.

Take `CCCCCCCCCCC(CCCCCCCC)COC(=O)CCCCCOC(=O)NC(COC(=O)NCCN1CCCCCC1)C(=O)OCCCCCC(=O)OCC(CCCCCCCC)CCCCCCCCCC` (stereo not drawn) [Lipid 1021]: in the data set on C57BL/6J mice, the “Kidney (p/s)” value came to 5.69E+07 p/s, the “Large intestine (p/s)” value is 1.91E+08 p/s, the “Liver (p/s)” value was determined as 1.88E+10 p/s and the “Small intestine (p/s)” value came out at 1.60E+09 p/s. Moreover, in the data set with C57BL/6J mice, the “Spleen (p/s)” value is 6.45E+08 p/s and the “Whole body (p/s)” value turned out to be 1.48E+10 p/s. For the same compound, the “MCP-1 at 2 h” value in the data set with MCP-1 (2 h) came to 1560 pg/mL. Further, the “MCP-1 at 24 h” value in the data set on MCP-1 (24 h) came out at 166 pg/mL. In addition, the “Plasma (ng/mL), ionizable lipid concentration” value (shortened to “Plasma (ng/mL)”) in data set [5] (1 h post injection) is 2558 ng/mL and 2938 ng/mL. Also, in [5] (6 h post injection), the “Liver (ng/g), ionizable lipid concentration” value is 33582 ng/g and 37570 ng/g; the “Plasma (ng/mL)” value was 976 ng/mL and 1347 ng/mL. In addition, the “Plasma (ng/mL)” value in [5] (96 h post injection) is 23.9 ng/mL and 5.16 ng/mL and 9.41 ng/mL. Besides, in [5] (168 h post injection), the “Liver (ng/g), ionizable lipid concentration” value is 3103 ng/g and 1228 ng/g and 1508 ng/g; the “Plasma (ng/mL)” value is 6.98 ng/mL and 1.89 ng/mL. In [5] (male, Sprague-Dawley, rat, liver, iv, 0.15 mg/kg, 6 h post injection, read-out: Liver (ng/g), ionizable lipid concentration), the concentration at 6 h was found to be 48100 ng/g. In data set [5] (male, Sprague-Dawley, rat, plasma, iv, 0.15 mg/kg, 1 h post injection), this compound yielded a concentration at 1 h of 3.28 µg/mL. Further, the concentration at 6 h in data set [5] (male, Sprague-Dawley, rat, plasma, iv, 0.15 mg/kg, 6 h post injection, read-out: Plasma (ng/mL), ionizable lipid concentration) worked out at 1480 ng/mL. In data set [2] (setting [8]), this compound gave a PDI of 0.04 and a Size of 57.55 nm. In [2] (setting [6]), this compound registered a PDI of 0.05 and a Size of 57.55 nm. Moreover, in the data set on Balb/c mice (setting [9]), the “Liver (p/s) (Mean)” value is reported as 1.19E+08 p/s, the “Spleen (p/s) (Mean)” value is 5.32E+07 p/s and the “Whole body (p/s) (Mean)” value is 8.26E+08 p/s. In addition, the “IL-6 at 2 h” value with IL-6 (2 h) was 28.6 pg/mL. Further, the “IL-6 at 24 h” value in the data set with IL-6 (24 h) turned out to be 0.639 pg/mL. For the same compound, the “EE (%)” value in data set [3] (setting [8]) amounted to 96.60%. The “EE (%)” value in data set [3] (setting [6]) is listed as 93.55%.
